Results taken from PubChem BioAssay AID1918954 (Molecular Pharmacology Branch, DTP, NCI, 2023).
Values joined by “and” are separate entries in the source; they are usually repeats but may differ in a detail not shown here. Equal entries are not always repeated.

System: MDA-MB-468 complex spheroids with HUVEC/MSC, viability
Test: Anticancer human tumor MDA-MB-468 cell line growth inhibition;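 further: spheroids exposed to agents for seven days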;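 on viability, T/C: 100% = DMSO vehicle control viability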
Details: for viability, T/C: stronger effect = lower value
Text: Multicellular complex tumor spheroid response to LSD1 Inhibitor Iadademstat in combination with a variety of drugs and investigational agents in selected tumor cell lines
The current study was undertaken to assess response to LSD1 inhibitors in combination with standard-of-care drugs and investigational agents in solid tumor complex spheroid models as well as in the K-562 leukemia. Complex spheroids include a stromal component modeled by human endothelial cells (HUVEC) and fibroblasts modeled by human mesenchymal stem cells (MSCs). The concentration ranges selected for each drug and investigational agent were based upon clinically achievable concentrations if the clinical Cmax of the agent was known.
Compounds. The drugs and investigational agents used in this study are listed on Table 1. All of the agents used, including staurosporine (NSC755774) and gemcitabine (NSC613327), were obtained from the Developmental Therapeutics Program, NCI. FDA-approved anticancer drugs are available from the NCI at http://dtp.nci.nih.gov/branches/dscb/oncology_drugset_explanation.html. Drugs and investigational agents were >95% pure by proton nuclear magnetic resonance (NMR) and liquid chromatography/mass spectrometry (LC/MS). Stock solutions were prepared at 400x in DMSO, stored at -70 degrees C, and diluted in fresh medium prior to their use. The final concentration of DMSO in cell culture wells never exceeded 0.25% (v/v). The FDA-approved anticancer drug set is available from the Developmental Therapeutics Program at https://dtp.cancer.gov/organization/dscb/obtaining/available_plates.htm. All drugs and investigational agents were tested over a range starting from a high concentration at or near the clinical Cmax and decreasing in half-log increments. If the clinical Cmax for an agent had not been determined, the highest concentration tested was 10 microM.
Cell Lines. The patient-derived cancer cell (PDC) lines: 292921-168-R-J2-PDC, K24384-001-R-PDC, and 521955-158-R2-J5-PDC pancreatic carcinomas, 556581-035-R-J1 ovarian carcinoma, 324938-238-R-J1-PDC, 855422-203-R-J1-PDC and 883617-216-R-J1-PDC urothelial bladder carcinomas, 743489-274-T-PDC renal cell carcinoma, 138582-R-J1 Merkel cell tumor, K60290-347-R-J1 and K57222-313-R-J1-PDC glioblastomas, 653999-131-R-J2-PDC, LG0703-F948-PDC, and 349418-098-R-PDC non-small cell lung carcinomas, 885512-296-R-J2-PDC, 171881-019-R-J1-PDC breast carcinomas and 186277-243-T-J2-PDC and 233499-124-R-J2-PDC colon carcinomas were obtained from the NCI Patient-Derived Models Repository (PDMR, https://pdmr.cancer.gov). The established cell lines NCI/ADR-RES (RRID:CVCL_14520 and OVCAR-5 (RRID:CVCL_1628) ovarian carcinomas, 786-O (RRID:CVCL_1051) and A498 (RRID:CVCL_A498) renal cell carcinoma, NCI-H211 (ATCC, cat. CRL-5824; RRID:CVCL_1529), NCI-H196 (ATCC, cat. CRL-5823, RRID:CVCL_1509), SW 1271 (ATCC, cat. CRL-2177, RRID:CVCL_1716) and NCI-H1876 (ATCC, cat. CRL-5902, RRID:CVCL_1503) small cell lung carcinomas, MDA-MB-231 (RRID:CVCL_0062) and MDA-MB-468 (RRID:CVCL_0419)breast carcinomas (10-12). Pooled donor human umbilical vein endothelial cells (HUVEC, Lonza, cat. CC-2519) and human mesenchymal stem cells (hMSC, Lonza, cat. PT-2501) were purchased from Lonza (Walkersville, MD).
Cell Culture. All cells were maintained in an incubator at 37 degrees C and 5% CO2 with 95% humidity. The PDC lines were cultured according to standard operating procedures established by the NCI PDMR (https://pdmr.cancer.gov). Briefly all PDCs were thawed and cultured in Matrigel-coated flasks prepared with a working solution of 1X Ham's F-12 nutrient mix, without supplementation (Invitrogen, Waltham, MA, cat. 11765054), 100 U/mL penicillin-streptomycin (Invitrogen, cat. 15140122), and 2.5% Matrigel (Corning Inc., Corning, NY, cat. 354248) for the first three passages. […]

[1] = curve of first compound, second compound 0.1 µM
[2] = curve of first compound, second compound 0.316 µM
[3] = curve of first compound, second compound 1 µM
[4] = curve of first compound, second compound 3.16 µM
[5] = curve of first compound, second compound 10 µM

Compound `NS(=O)(=O)OCC1CC(n2ccc3c(NC4CCc5ccccc54)ncnc32)CC1O` (configuration not stated) + NC1CC1c1ccc(-c2cccc(O)c2)cc1 has an IC50 [1] of 11.5 nM, an IC50 [2] of 11.2 nM and an IC50 [3] of under 9.49 nM. It also gave an IC50 [4] of under 9.49 nM, an IC50 [5] of under 9.49 nM and a viability, T/C (second compound 0.1 µM, first compound 0.00949 µM) of 54.5%. The viability, T/C (second compound 0.1 µM, first compound 0.03 µM) was 28.2%, the viability, T/C (second compound 0.1 µM, first compound 0.0949 µM) was 9.26% and the viability, T/C (second compound 0.1 µM, first compound 0.3 µM) was 5.09%. The viability, T/C (second compound 0.1 µM, first compound 0.949 µM) was 2.96%, the viability, T/C (second compound 0.1 µM, first compound 3 µM) was 2.17% and the viability, T/C (second compound 0.316 µM, first compound 0.00949 µM) was 54.2%. It also gave a viability, T/C (second compound 0.316 µM, first compound 0.03 µM) of 26.2%, a viability, T/C (second compound 0.316 µM, first compound 0.0949 µM) of 9.29% and a viability, T/C (second compound 0.316 µM, first compound 0.3 µM) of 5.11%. The viability, T/C (second compound 0.316 µM, first compound 0.949 µM) was 3%, the viability, T/C (second compound 0.316 µM, first compound 3 µM) was 2.26% and the viability, T/C (second compound 1 µM, first compound 0.00949 µM) was 45.8%. For the same compound, the viability, T/C (second compound 1 µM, first compound 0.03 µM) was 20.7%, the viability, T/C (second compound 1 µM, first compound 0.0949 µM) was 9.67% and the viability, T/C (second compound 1 µM, first compound 0.3 µM) was 4.9%. It also gave a viability, T/C (second compound 1 µM, first compound 0.949 µM) of 3.15%, a viability, T/C (second compound 1 µM, first compound 3 µM) of 2.38% and a viability, T/C (second compound 3.16 µM, first compound 0.00949 µM) of 36.5%. For the same compound, the viability, T/C (second compound 3.16 µM, first compound 0.03 µM) was 18.4%, the viability, T/C (second compound 3.16 µM, first compound 0.0949 µM) was 9.14% and the viability, T/C (second compound 3.16 µM, first compound 0.3 µM) was 5.23%. It also gave a viability, T/C (second compound 3.16 µM, first compound 0.949 µM) of 3.44%, a viability, T/C (second compound 3.16 µM, first compound 3 µM) of 2.31% and a viability, T/C (second compound 10 µM, first compound 0.00949 µM) of 20.9%. It also gave a viability, T/C (second compound 10 µM, first compound 0.03 µM) of 12.1%, a viability, T/C (second compound 10 µM, first compound 0.0949 µM) of 5.43% and a viability, T/C (second compound 10 µM, first compound 0.3 µM) of 3.74%. For the same compound, the viability, T/C (second compound 10 µM, first compound 0.949 µM) was 2.55% and the viability, T/C (second compound 10 µM, first compound 3 µM) was 2.05%.

`Nc1ccn(C2OC(CO)C(O)C2(F)F)c(=O)n1` (configuration not stated) was tested, and the viability, T/C (compound 0.003 µM) was 6.32% and 18.5%, the viability, T/C (compound 0.00949 µM) was 5.5% and 5.58% and the viability, T/C (compound 0.03 µM) was 5.68% and 4.46%. For the same compound, the viability, T/C (compound 0.0949 µM) was 5.72% and 4.42%, the viability, T/C (compound 0.3 µM) was 5.93% and 4.29% and the IC50 (curve of compound) was under 0.949 nM.

`Nc1ncn(C2CC(O)C(CO)O2)c(=O)n1` (configuration not stated) was tested, and the viability, T/C (compound 0.00316 µM) was 81.4% and 94.2%, the viability, T/C (compound 0.01 µM) was 59.5% and 67% and the viability, T/C (compound 0.0316 µM) was 23.6% and 31.2%. The viability, T/C (compound 0.1 µM) was 15% and 14.6%, the viability, T/C (compound 0.316 µM) was 12.6% and 11% and the viability, T/C (compound 1 µM) was 12% and 8.85%. For the same compound, the IC50 (curve of compound) was 13.6 nM and 17.3 nM.

In the case of `CC[C@@]1(O)C(=O)OCc2c1cc1n(c2=O)Cc2cc3c(CN(C)C)c(O)ccc3nc2-1`, the viability, T/C (compound 0.000316 µM) is reported as 69% and 95.9%, the viability, T/C (compound 0.001 µM) is reported as 39.5% and 54.5% and the viability, T/C (compound 0.00316 µM) is reported as 16.9% and 14%. For the same compound, the viability, T/C (compound 0.01 µM) was 10.4% and 12.7%, the viability, T/C (compound 0.0316 µM) was 7.18% and 6.23% and the viability, T/C (compound 0.1 µM) was 7.59% and 4.68%. For the same compound, the IC50 (curve of compound) was 0.662 nM and 1.14 nM.

In the case of `COc1ccc([C@@H](O)c2cc(-c3ncnc4cc(N5CCOCC5)ccc34)c(F)cc2Cl)nn1`, the viability, T/C (compound 0.0316 µM) is reported as 91.7% and 90.3%, the viability, T/C (compound 0.1 µM) is reported as 86.8% and 90.4% and the viability, T/C (compound 0.316 µM) is reported as 82.5% and 71.8%. The viability, T/C (compound 1 µM) was 58.3% and 51%, the viability, T/C (compound 3.16 µM) was 32.1% and 29.9% and the viability, T/C (compound 10 µM) was 14% and 6.59%. The IC50 (curve of compound) was 1480 nM and 1130 nM.

`CC1COCCN1c1cc(-c2ccnn2C)c2ccnc(-c3ccn[nH]3)c2n1` (configuration not stated) + NC1CCC(NC2CC2c2ccccc2)CC1 showed an IC50 [1] of 15.2 nM, an IC50 [2] of 16.2 nM and an IC50 [3] of 16 nM. The IC50 [4] was 12.2 nM, the IC50 [5] was 4.61 nM and the viability, T/C (second compound 0.1 µM, first compound 0.00316 µM) was 81.7%. The viability, T/C (second compound 0.1 µM, first compound 0.01 µM) was 54.2%, the viability, T/C (second compound 0.1 µM, first compound 0.0316 µM) was 42.3% and the viability, T/C (second compound 0.1 µM, first compound 0.1 µM) was 22.9%. The viability, T/C (second compound 0.1 µM, first compound 0.316 µM) was 15.6%, the viability, T/C (second compound 0.1 µM, first compound 1 µM) was 11.2% and the viability, T/C (second compound 0.316 µM, first compound 0.00316 µM) was 68.7%. It also gave a viability, T/C (second compound 0.316 µM, first compound 0.01 µM) of 58.5%, a viability, T/C (second compound 0.316 µM, first compound 0.0316 µM) of 38.2% and a viability, T/C (second compound 0.316 µM, first compound 0.1 µM) of 23%. The viability, T/C (second compound 0.316 µM, first compound 0.316 µM) was 16.5%, the viability, T/C (second compound 0.316 µM, first compound 1 µM) was 13.8% and the viability, T/C (second compound 1 µM, first compound 0.00316 µM) was 72.8%. The viability, T/C (second compound 1 µM, first compound 0.01 µM) was 59%, the viability, T/C (second compound 1 µM, first compound 0.0316 µM) was 37.3% and the viability, T/C (second compound 1 µM, first compound 0.1 µM) was 23.2%. It also gave a viability, T/C (second compound 1 µM, first compound 0.316 µM) of 16.4%, a viability, T/C (second compound 1 µM, first compound 1 µM) of 9.5% and a viability, T/C (second compound 3.16 µM, first compound 0.00316 µM) of 60.4%. The viability, T/C (second compound 3.16 µM, first compound 0.01 µM) was 52.7%, the viability, T/C (second compound 3.16 µM, first compound 0.0316 µM) was 38.9% and the viability, T/C (second compound 3.16 µM, first compound 0.1 µM) was 27.6%. The viability, T/C (second compound 3.16 µM, first compound 0.316 µM) was 18.4%, the viability, T/C (second compound 3.16 µM, first compound 1 µM) was 14.9% and the viability, T/C (second compound 10 µM, first compound 0.00316 µM) was 52.9%. For the same compound, the viability, T/C (second compound 10 µM, first compound 0.01 µM) was 44%, the viability, T/C (second compound 10 µM, first compound 0.0316 µM) was 30.1% and the viability, T/C (second compound 10 µM, first compound 0.1 µM) was 19%. It also gave a viability, T/C (second compound 10 µM, first compound 0.316 µM) of 17.4% and a viability, T/C (second compound 10 µM, first compound 1 µM) of 13.4%.
